Results taken from patent publication US12479847B2 (DANA-FARBER CANCER INSTITUTE, INC., priority 2019, dated 2025).

Tests used:
Test in all cases: KINOMEscan (ScanMAX) kinase profiling
Assay type in all cases: binding
panel of 468 kinases [1] = molecular target: T1, panel of 468 kinases (Homo sapiens, UniProt Q8IWQ3); conditions: BRSK2; 1 μM; read-out: % control
T1 construct: purchased KINOMEscan (ScanMAX) service
T1 sequence (Q8IWQ3 1-736): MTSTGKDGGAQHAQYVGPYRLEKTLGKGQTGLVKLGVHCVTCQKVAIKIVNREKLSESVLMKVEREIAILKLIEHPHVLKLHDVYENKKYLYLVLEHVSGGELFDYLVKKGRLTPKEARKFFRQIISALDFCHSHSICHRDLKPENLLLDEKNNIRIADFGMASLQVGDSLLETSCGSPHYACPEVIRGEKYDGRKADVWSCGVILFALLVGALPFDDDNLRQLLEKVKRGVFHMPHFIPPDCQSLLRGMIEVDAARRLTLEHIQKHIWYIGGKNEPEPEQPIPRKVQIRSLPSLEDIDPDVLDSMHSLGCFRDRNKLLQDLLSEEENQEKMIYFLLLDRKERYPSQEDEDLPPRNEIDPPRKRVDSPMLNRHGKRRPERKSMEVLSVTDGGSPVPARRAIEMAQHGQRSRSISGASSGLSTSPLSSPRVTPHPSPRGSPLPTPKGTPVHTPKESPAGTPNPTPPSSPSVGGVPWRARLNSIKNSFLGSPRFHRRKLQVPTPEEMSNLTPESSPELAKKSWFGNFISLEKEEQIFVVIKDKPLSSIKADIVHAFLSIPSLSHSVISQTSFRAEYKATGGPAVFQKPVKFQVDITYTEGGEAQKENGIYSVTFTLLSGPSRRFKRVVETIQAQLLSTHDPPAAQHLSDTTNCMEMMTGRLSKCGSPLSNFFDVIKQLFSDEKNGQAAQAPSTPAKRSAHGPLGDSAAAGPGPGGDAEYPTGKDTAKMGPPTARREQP

panel of 468 kinases [2] = molecular target: T2, panel of 468 kinases (Homo sapiens, UniProt P30530); conditions: AXL; 1 μM; read-out: % control
T2 construct: purchased KINOMEscan (ScanMAX) service
T2 sequence (P30530 26-894): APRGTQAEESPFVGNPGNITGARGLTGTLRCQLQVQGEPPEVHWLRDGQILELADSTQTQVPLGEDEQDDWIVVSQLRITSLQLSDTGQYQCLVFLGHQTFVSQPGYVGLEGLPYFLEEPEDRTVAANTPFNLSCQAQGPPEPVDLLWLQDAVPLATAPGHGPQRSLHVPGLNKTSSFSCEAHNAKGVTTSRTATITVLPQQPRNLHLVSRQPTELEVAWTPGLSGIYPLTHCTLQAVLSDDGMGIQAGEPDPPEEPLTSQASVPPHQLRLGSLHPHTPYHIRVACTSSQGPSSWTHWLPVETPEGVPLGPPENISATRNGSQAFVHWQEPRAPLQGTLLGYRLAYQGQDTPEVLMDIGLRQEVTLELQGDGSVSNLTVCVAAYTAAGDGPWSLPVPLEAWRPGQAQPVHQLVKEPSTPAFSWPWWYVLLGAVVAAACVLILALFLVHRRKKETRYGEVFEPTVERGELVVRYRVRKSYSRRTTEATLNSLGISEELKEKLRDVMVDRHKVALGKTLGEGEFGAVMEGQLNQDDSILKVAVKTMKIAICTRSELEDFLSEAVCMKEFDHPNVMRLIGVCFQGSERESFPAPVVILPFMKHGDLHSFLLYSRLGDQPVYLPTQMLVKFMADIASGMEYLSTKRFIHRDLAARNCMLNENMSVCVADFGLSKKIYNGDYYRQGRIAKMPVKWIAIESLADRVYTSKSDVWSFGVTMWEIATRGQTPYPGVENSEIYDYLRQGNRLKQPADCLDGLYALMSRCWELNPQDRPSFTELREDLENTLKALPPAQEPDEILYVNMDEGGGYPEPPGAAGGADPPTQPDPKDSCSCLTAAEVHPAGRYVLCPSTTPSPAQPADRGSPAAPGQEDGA

panel of 468 kinases [3] = molecular target: T3, panel of 468 kinases (Homo sapiens, UniProt Q16566); conditions: CAMK4; 1 μM; read-out: % control
T3 construct: purchased KINOMEscan (ScanMAX) service
T3 sequence (Q16566 1-473): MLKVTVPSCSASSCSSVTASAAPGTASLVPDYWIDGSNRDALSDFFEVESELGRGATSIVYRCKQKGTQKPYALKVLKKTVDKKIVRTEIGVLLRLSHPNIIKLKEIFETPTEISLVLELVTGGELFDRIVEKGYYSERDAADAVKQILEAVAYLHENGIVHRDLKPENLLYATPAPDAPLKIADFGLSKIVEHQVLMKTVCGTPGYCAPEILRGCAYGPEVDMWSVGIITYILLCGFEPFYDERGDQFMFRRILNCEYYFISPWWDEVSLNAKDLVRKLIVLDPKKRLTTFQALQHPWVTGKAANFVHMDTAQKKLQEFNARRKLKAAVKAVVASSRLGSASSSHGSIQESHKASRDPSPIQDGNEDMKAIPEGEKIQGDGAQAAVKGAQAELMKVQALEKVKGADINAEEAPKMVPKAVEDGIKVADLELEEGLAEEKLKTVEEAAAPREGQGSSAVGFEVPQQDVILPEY

SMILES	remaining binding at 1 µM (panel of 468 kinases [1])	remaining binding at 1 µM (panel of 468 kinases [2])	remaining binding at 1 µM (panel of 468 kinases [3])
CNc1nc(Nc2ccc(S(=O)(=O)N3CCC(N4CCOCC4)CC3)cc2OC)nc2[nH]cc(Cl)c12 [Compound 12, 5-chloro-N2-(2-methoxy-4-((4-morpholinopiperidin-1-yl)sulfonyl)phenyl)-N4-methyl-7H-pyrrolo[2,3-d]pyrimidine-2,4-diamine]	87%	100%	100%
CNc1nc(Nc2ccc(C(=O)N3CCC(N4CCOCC4)CC3)c3c2OCO3)nc2[nH]cc(Cl)c12 [Compound 75, (7-((5-chloro-4-(methylamino)-7H-pyrrolo[2,3-d]pyrimidin-2-yl)amino)benzo[d][1,3]dioxol-4-yl)(4-morpholinopiperidin-1-yl)methanone]	83%	63%	100%
CNc1nc(Nc2ccc(P3(=O)CCN(C4CCOCC4)CC3)cc2OC)nc2[nH]cc(Cl)c12 [Compound 77, 4-(4-((5-chloro-4-(methylamino)-7H-pyrrolo[2,3-d]pyrimidin-2-yl)amino)-3-methoxyphenyl)-1-(tetrahydro-2H-pyran-4-yl)-1,4-azaphosphinane 4-oxide]	96%	93%	100%
